Source: patent US20080261866A1, “Compositions Comprising Glycosaminoglycan and Nonsteroidal Anti-Inflammatory Drug” (PANACEA BIOTEC LTD., priority 2005, published 2008)

Tests used:
[1] = tested on: diclofenac-induced gastric ulcers; experiment: Diclofenac-induced acute gastric ulcers in rats; settings: Single oral administration of diclofenac free acid 100 mg/kg, fasted animals
Method: Wistar rats of either sex were fasted overnight and weighing 170-200 g at the time of testing were used throughout. […] A dosing volume of 10 ml/kg was used for each sequential solution or suspension. All doses were coded and the test was performed under a code not known to the observer.
The ulcers were induced as described by Chan et al. (1995). In brief, overnight fasted animals were weighed and randomly divided into four groups. […] The number of ulcers was identified using 10× magnifying lens, counted, multiplied by respective score, and summed up for each animal. The mean score as ulcer index in each group was calculated as mentioned below.

[2] = tested on: Indomethacin-induced gastric ulcers; experiment: Indomethacin-induced acute gastric ulcers in rats; assay type: in vivo, Wistar rats; settings: Single oral administration of indomethacin 20 mg/kg, fasted animals
Method: The observed unexpected gastroprotective effect of Chondroitin sulphate is evidenced by test conducted in rats. Wistar rats of either sex were procured from Central Animal House facility, Panacea Biotec Ltd., India. The animals were fasted overnight and those weighing between 150-170 gms at the time of testing were used throughout. […] In brief, overnight fasted animals were administered orally with 20 mg/kg of Indomethacin on the day of experimentation. […] [table]

Row | Structure (SMILES) | Gastric damage (in words) [1] | Gastric damage (in words) [2]
1 | O=C(O)Cc1ccccc1Nc1c(Cl)cccc1Cl [Diclofenac, Diclofenac free acid] | severe gastric damage | 
2 | COc1ccc2c(c1)c(CC(=O)O)c(C)n2C(=O)c1ccc(Cl)cc1 [Indomethacin] |  | severe gastric damage
